# pIC50: −log10 of the molar value.
# System: 156681-154-R-J1-PDC complex spheroid viability
# Experiment: Anticancer human tumor 156681-154-R-J1-PDC patient-derived melanoma cell line growth inhibition [CLK]
# Conditions: for pIC50: curve of first compound; for viability, T/C: stronger effect = lower value
# Summary of the method: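 Patient-derived tumor cells grown as complex spheroids with HUVEC endothelial cells and mesenchymal stem cells, treated with drug combinations. Concentrations descend in half-log steps from near clinical Cmax, or from 10 microM if Cmax unknown.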
# 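Note: spheroids exposed to the agents for seven days.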
# 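Throughout, for viability, T/C: 100% = DMSO vehicle control viability.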
structure (smiles),measurement,setting,value
CC(C)CC(NC(=O)C(Cc1ccccc1)NC(=O)c1cnccn1)B(O)O (centres undefined) + CN1CCN(c2cc(C(=O)Nc3cc4cc(-c5cnn(C)c5)ccc4cn3)ccn2)CC1,pIC50,second compound 0.0316 µM,> 9.02
same,pIC50,second compound 0.1 µM,> 9.02
same,pIC50,second compound 0.316 µM,> 9.02
same,pIC50,second compound 1 µM,> 9.02
same,pIC50,second compound 3.16 µM,> 9.02
same,pIC50,second compound 10 µM,> 9.02
same,"viability, T/C","second compound 0.0316 µM, first compound 0.000949 µM",30.4%
same,"viability, T/C","second compound 0.0316 µM, first compound 0.003 µM",2%
same,"viability, T/C","second compound 0.0316 µM, first compound 0.00949 µM",1.41%
same,"viability, T/C","second compound 0.0316 µM, first compound 0.03 µM",0.26%
same,"viability, T/C","second compound 0.0316 µM, first compound 0.0949 µM",1.66%
same,"viability, T/C","second compound 0.0316 µM, first compound 0.3 µM",1.32%
same,"viability, T/C","second compound 0.1 µM, first compound 0.000949 µM",28%
same,"viability, T/C","second compound 0.1 µM, first compound 0.003 µM",0.48%
same,"viability, T/C","second compound 0.1 µM, first compound 0.00949 µM",1.04%
same,"viability, T/C","second compound 0.1 µM, first compound 0.03 µM",0.2%
same,"viability, T/C","second compound 0.1 µM, first compound 0.0949 µM",0.26%
same,"viability, T/C","second compound 0.1 µM, first compound 0.3 µM",0.77%
same,"viability, T/C","second compound 0.316 µM, first compound 0.000949 µM",13%
same,"viability, T/C","second compound 0.316 µM, first compound 0.003 µM",0.37%
same,"viability, T/C","second compound 0.316 µM, first compound 0.00949 µM",0.66%
same,"viability, T/C","second compound 0.316 µM, first compound 0.03 µM",0.14%
same,"viability, T/C","second compound 0.316 µM, first compound 0.0949 µM",0.29%
same,"viability, T/C","second compound 0.316 µM, first compound 0.3 µM",1.48%
same,"viability, T/C","second compound 1 µM, first compound 0.000949 µM",0.13%
same,"viability, T/C","second compound 1 µM, first compound 0.003 µM",0.37%
same,"viability, T/C","second compound 1 µM, first compound 0.00949 µM",0.14%
same,"viability, T/C","second compound 1 µM, first compound 0.03 µM",0.09%
same,"viability, T/C","second compound 1 µM, first compound 0.0949 µM",1.37%
same,"viability, T/C","second compound 1 µM, first compound 0.3 µM",0.12%
same,"viability, T/C","second compound 3.16 µM, first compound 0.000949 µM",0.33%
same,"viability, T/C","second compound 3.16 µM, first compound 0.003 µM",1.51%
same,"viability, T/C","second compound 3.16 µM, first compound 0.00949 µM",0.09%
same,"viability, T/C","second compound 3.16 µM, first compound 0.03 µM",0.08%
same,"viability, T/C","second compound 3.16 µM, first compound 0.0949 µM",3.52%
same,"viability, T/C","second compound 3.16 µM, first compound 0.3 µM",1.36%
same,"viability, T/C","second compound 10 µM, first compound 0.000949 µM",0.1%
same,"viability, T/C","second compound 10 µM, first compound 0.003 µM",1.45%
same,"viability, T/C","second compound 10 µM, first compound 0.00949 µM",2.17%
same,"viability, T/C","second compound 10 µM, first compound 0.03 µM",0.1%
same,"viability, T/C","second compound 10 µM, first compound 0.0949 µM",1.66%
same,"viability, T/C","second compound 10 µM, first compound 0.3 µM",0.84%
CC1(C)CCC(CN2CCN(c3ccc(C(=O)NS(=O)(=O)c4ccc(NCC5CCOCC5)c([N+](=O)[O-])c4)c(Oc4cnc5[nH]ccc5c4)c3)CC2)=C(c2ccc(Cl)cc2)C1 + CN1CCN(c2cc(C(=O)Nc3cc4cc(-c5cnn(C)c5)ccc4cn3)ccn2)CC1,pIC50,second compound 0.0316 µM,5.30
same,pIC50,second compound 0.1 µM,5.36
same,pIC50,second compound 0.316 µM,> 7.50
same,pIC50,second compound 1 µM,> 7.50
same,pIC50,second compound 3.16 µM,> 7.50
same,pIC50,second compound 10 µM,> 7.50
same,"viability, T/C","second compound 0.0316 µM, first compound 0.0316 µM",99.7%
same,"viability, T/C","second compound 0.0316 µM, first compound 0.1 µM",116%
same,"viability, T/C","second compound 0.0316 µM, first compound 0.316 µM",90.8%
same,"viability, T/C","second compound 0.0316 µM, first compound 1 µM",103%
same,"viability, T/C","second compound 0.0316 µM, first compound 3.16 µM",81.6%
same,"viability, T/C","second compound 0.0316 µM, first compound 10 µM",1.68%
same,"viability, T/C","second compound 0.1 µM, first compound 0.0316 µM",97.8%
same,"viability, T/C","second compound 0.1 µM, first compound 0.1 µM",83.3%
same,"viability, T/C","second compound 0.1 µM, first compound 0.316 µM",86%
same,"viability, T/C","second compound 0.1 µM, first compound 1 µM",88.8%
same,"viability, T/C","second compound 0.1 µM, first compound 3.16 µM",69.2%
same,"viability, T/C","second compound 0.1 µM, first compound 10 µM",0.79%
same,"viability, T/C","second compound 0.316 µM, first compound 0.0316 µM",18.2%
same,"viability, T/C","second compound 0.316 µM, first compound 0.1 µM",19.7%
same,"viability, T/C","second compound 0.316 µM, first compound 0.316 µM",24.4%
same,"viability, T/C","second compound 0.316 µM, first compound 1 µM",17.9%
same,"viability, T/C","second compound 0.316 µM, first compound 3.16 µM",8.72%
same,"viability, T/C","second compound 0.316 µM, first compound 10 µM",0.28%
same,"viability, T/C","second compound 1 µM, first compound 0.0316 µM",0.22%
same,"viability, T/C","second compound 1 µM, first compound 0.1 µM",0.91%
same,"viability, T/C","second compound 1 µM, first compound 0.316 µM",0.19%
same,"viability, T/C","second compound 1 µM, first compound 1 µM",0.18%
same,"viability, T/C","second compound 1 µM, first compound 3.16 µM",2.05%
same,"viability, T/C","second compound 1 µM, first compound 10 µM",0.07%
same,"viability, T/C","second compound 3.16 µM, first compound 0.0316 µM",2.04%
same,"viability, T/C","second compound 3.16 µM, first compound 0.1 µM",0.47%
same,"viability, T/C","second compound 3.16 µM, first compound 0.316 µM",0.27%
same,"viability, T/C","second compound 3.16 µM, first compound 1 µM",0.09%
same,"viability, T/C","second compound 3.16 µM, first compound 3.16 µM",3.38%
same,"viability, T/C","second compound 3.16 µM, first compound 10 µM",0.4%
same,"viability, T/C","second compound 10 µM, first compound 0.0316 µM",0.1%
same,"viability, T/C","second compound 10 µM, first compound 0.1 µM",3.06%
same,"viability, T/C","second compound 10 µM, first compound 0.316 µM",2.9%
same,"viability, T/C","second compound 10 µM, first compound 1 µM",0.17%
same,"viability, T/C","second compound 10 µM, first compound 3.16 µM",0.91%
same,"viability, T/C","second compound 10 µM, first compound 10 µM",0.56%

# Reference: PubChem BioAssay AID2060627 (Molecular Pharmacology Branch, DTP, NCI, 2025)
